From patent publication US12306176B2, “Microfluidic bi-directional migration assay” (Ohio State Innovation Foundation, priority 2017, dated 2025) come the findings set out here.

For one assay, the system named is EGFR. The assay is described as follows: Western blot of EGFR phosphorylation (Tyr-1068). Type of assay: cell-based, human. To be noted: EGF 25 ng/mL, absence of iEFs, 12 hours. How it is done:
For these experiments, 1×10^6 cells/well were plated in 6-well plates in growth media for 12 hours followed by migration media for another 12 hours. Fresh migration media was added to the top three wells in each plate (1, 2, 3) while EGF (25 ng/mL) and supplemental migration media were added to the bottom three wells (4, 5, 6). One of the cell-containing 6-well plates was then treated with iEFs for 12 hours. Immediately after treatment, the plates were placed on ice and each well was then washed three times with 1× tris-buffered saline (TBS, Corning Inc.) solution. TBS was aspirated out and 1 mL ice-cold radioimmunoprecipitation assay (RIPA) buffer, supplemented with a protease inhibitor and a phosphatase inhibitor, was added to each well. Cells were scraped out using a cold plastic cell scraper and the cell suspension was transferred into a pre-cooled microcentrifuge tube. The cell suspension was then spun at 16000 g for 20 minutes in a 4° C. precooled centrifuge. The centrifuge tubes were placed on ice and the supernatants were transferred to fresh tubes and kept on ice. The pellet at the bottom of each microcentrifuge tube was discarded. Protein in each tube was estimated against a standard bovine serum albumin (BSA) solution (1.42 mg/mL) using the DCTM Protein Assay Kit II (Bio-Rad, 500-0112). […]

In assay [1] the test system is lactate dehydrogenase (LDH). The assay is described as follows: LDH activity colorimetric kinetic assay. Type of assay: cell-based, human. The settings on record: EGF 25 ng/mL, 12 hours; not significant. The text has this:
To investigate whether iEF has an effect on metabolic function of MDA-MB-231 cells, the activity levels of lactate dehydrogenase (LDH) and succinate dehydrogenase (SDH) were examined. LDH is an enzyme that catalyzes the interconversion of pyruvate to lactate as part of the glycolysis chain (Pelicano H, et al. (2006) Oncogene 25 (34):4633). SDH is an enzyme within Complex II of the mitochondria that is utilized in both the tricarboxylic acid (TCA) cycle as well as oxidative phosphorylation (OXPHOS) (Gottlieb E & Tomlinson IP (2005) Nat Rev Cancer. 5 (11):857). As part of the TCA cycle, SDH catalyzes the oxidation of succinate to fumarate, and as part of OXPHOS, SDH transfers two electrons from flavin adenine dinucleotide into the electron transport chain (Gottlieb E & Tomlinson IP (2005) Nat Rev Cancer. 5 (11):857). To determine whether LDH or SDH activity levels were changing, colorimetric kinetic assays were employed. […]
1×10^6 cells/well were plated in 6 well plates in growth media for 12 hours followed by migration media (0.1% FBS) for an additional 12 hours. […] The LDH activity assay kit (Sigma-Aldrich, MAK066) and the SDH activity colorimetric assay kit (Sigma-Aldrich, MAK197) were used to quantify LDH and SDH activity respectively. […] For quantification of LDH and SDH, the protocols provided by the supplier were followed. […]

Consider epidermal growth factor [EGF], for which the EGFR phosphorylation entry with EGFR is reported as “resulted in EGFR phosphorylation”. Besides, the “change of LDH activity from control” value in assay [1] is below 6%.
